Here are results for four compounds from patent US20210115036A1, “AZAINDOLES AND METHODS OF USE THEREOF” (GOLDFINCH BIO, INC., priority 2017, published 2021).

The target of the assay is T1, human TRPC5 (Homo sapiens, UniProt Q9UL62).
T1 construct: expressed in transfected cells; host or cells: HEK 293
T1 sequence (Q9UL62 1-973): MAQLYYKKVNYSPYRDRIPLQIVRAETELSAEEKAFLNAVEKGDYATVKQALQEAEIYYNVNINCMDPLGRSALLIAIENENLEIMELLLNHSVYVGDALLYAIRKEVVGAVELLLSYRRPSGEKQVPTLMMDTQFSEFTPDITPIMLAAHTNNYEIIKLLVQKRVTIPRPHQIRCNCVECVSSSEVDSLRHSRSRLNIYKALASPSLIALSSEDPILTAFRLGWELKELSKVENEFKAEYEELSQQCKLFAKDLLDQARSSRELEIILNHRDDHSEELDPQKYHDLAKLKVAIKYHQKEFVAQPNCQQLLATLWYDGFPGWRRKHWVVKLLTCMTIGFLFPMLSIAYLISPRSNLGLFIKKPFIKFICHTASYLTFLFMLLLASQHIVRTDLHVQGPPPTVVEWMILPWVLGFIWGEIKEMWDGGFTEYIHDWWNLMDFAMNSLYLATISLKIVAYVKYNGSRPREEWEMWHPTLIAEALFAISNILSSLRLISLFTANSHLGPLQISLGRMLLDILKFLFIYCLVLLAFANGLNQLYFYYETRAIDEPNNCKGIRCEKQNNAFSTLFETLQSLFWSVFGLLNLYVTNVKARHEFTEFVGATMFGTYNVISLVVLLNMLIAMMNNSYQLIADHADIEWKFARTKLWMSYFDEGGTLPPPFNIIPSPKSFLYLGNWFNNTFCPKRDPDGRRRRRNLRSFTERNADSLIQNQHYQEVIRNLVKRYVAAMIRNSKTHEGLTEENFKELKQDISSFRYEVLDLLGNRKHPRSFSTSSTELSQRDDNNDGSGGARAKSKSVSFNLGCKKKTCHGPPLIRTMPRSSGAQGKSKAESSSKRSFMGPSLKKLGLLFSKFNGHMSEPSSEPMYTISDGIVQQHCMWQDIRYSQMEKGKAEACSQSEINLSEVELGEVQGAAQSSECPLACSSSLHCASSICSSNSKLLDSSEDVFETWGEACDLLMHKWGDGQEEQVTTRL
Kind of assay: Automated patch clamp assay (QPatch), current block after stimulation with rosiglitazone. The assay is classed as cell-based. The conditions noted are these: HEK293 cells overexpressing TRPC5, whole cell automated patch. As for the experimental part:
HEK 293 cells expressing human TRPC5 were harvested, re-suspended in serum free medium, and added to the automated platform and used within 2-3 hours. Internal and external physiological solutions were freshly prepared prior to the assay. The external solution contained: 145 mM NaCl, 4 mM KCl, 2 mM CaCl2), 1 mM MgCl2, 10 mM HEPES, 10 mM glucose, pH 7.4 with NaOH and 300 mOsm/L. The internal solution contained 120 mM L-aspartic acid, 120 mM CsOH.H2O, 20 mM CsCl, 2 mM MgCl2, 8.8 mM CaCl2), 10 mM EGTA, 10 mM HEPES, 10 mM Glucose, 0.1 mM GTP and 2 mM Na2ATP; pH 7.2 with CsOH and 290 mOsm/L. The free internal Ca2+ concentration was buffered to 1 μM.
The automated electrophysiological platform QPatch 16 from Sophion (Denmark) was used to carry out the compounds profiling. The series resistance and quality of seals were continuously monitored during the experiments. Data was analyzed using Sophion QPatch assay software 5.6 (Odense). IC50 values were calculated using a least squares regression algorithm (Hill equation).
To monitor the ion currents, a voltage ramp from −100 mV to +100 mV, over 300 ms, was applied every 10 seconds, from a holding potential of −60 mV.
After recording for a minimum of 60 seconds control period, Rosiglitazone (30 uM), was applied to activate the channel.
For orientation: Patch clamp records ionic current or voltage across a cell membrane.

Where [1] appears, read: 80 mV, 1-substituted 7-azaindoles, read-out: TRPC5 IC50 80 mV.
The mark [2] stands for this setting: 100 mV, 7-substituted 7-azaindoles, read-out: TRPC5 IC50 100 mV.

Read-outs that look alike come from different tables or passages of the source.

A word on the IC50: it is the concentration needed to halve the response being measured. As for `CN(C)CCc1cc2cccnc2n1Cc1ccccc1`, the IC50 is above 30 µM under setting [1] and above 30 µM (100 mV, 1-substituted 7-azaindoles, read-out: TRPC5 IC50 100 mV).

For the compound `CC(C)(C)c1cc2cccnc2n1CC1CCN(Cc2ccccc2)CC1`, under setting [1], the IC50 was above 30 µM.

Turning to `Cn1cc(Cn2cccc3cc(C(C)(C)C)nc2-3)cn1`, the IC50 under setting [2] stood at 9.79 µM.

Turning to `CC(C)(C)c1cc2cccn(C[C@H]3CC[C@H](C)CC3)c-2n1` [drawing 137], the IC50 under setting [2] amounted to 22.2 µM.
